# Tests used:
# Test in all cases: relative viability (nuclei count vs DMSO), 5 days (fraction); higher = more cells survive
# Ibrutinib + Vorinostat = compound: C=CC(=O)N1CCC[C@@H](n2nc(-c3ccc(Oc4ccccc4)cc3)c3c(N)ncnc32)C1 [Ibrutinib] + O=C(CCCCCCC(=O)Nc1ccccc1)NO [Vorinostat] (partner 1 µM)
# Method in brief: (§1)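 Relative viability is defined as nuclei in treated wells over nuclei in vehicle wells. Duplicate plates were run and medians reported. Lung cancer cell lines in 1536-well plates were dosed by pin tool one day after seeding, with one drug or with a fixed anchor-drug dose plus five library-drug doses (not always all listed) in √10 steps, and nuclei were counted after 5 days.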
# BMX-IN-1 + OSI-027 = compound: C=CC(=O)Nc1cc(-n2c(=O)ccc3cnc4ccc(-c5ccc(NS(C)(=O)=O)cc5)cc4c32)ccc1C [BMX-IN-1] + COc1cccc2cc(-c3nc([C@H]4CC[C@H](C(=O)O)CC4)n4ncnc(N)c34)[nH]c12 [OSI-027] (partner 0.5 µM)
# Method in brief: as §1
# BMX-IN-1 + Olaparib = compound: C=CC(=O)Nc1cc(-n2c(=O)ccc3cnc4ccc(-c5ccc(NS(C)(=O)=O)cc5)cc4c32)ccc1C [BMX-IN-1] + O=C(c1cc(Cc2n[nH]c(=O)c3ccccc23)ccc1F)N1CCN(C(=O)C2CC2)CC1 [Olaparib] (partner 8 µM)
# Method in brief: as §1
# PAC-1 + Tozasertib = compound: C=CCc1cccc(/C=N/NC(=O)CN2CCN(Cc3ccccc3)CC2)c1O [PAC-1] + Cc1cc(Nc2cc(N3CCN(C)CC3)nc(Sc3ccc(NC(=O)C4CC4)cc3)n2)n[nH]1 [Tozasertib] (partner 0.1 µM)
# Method in brief: as §1
cell line,measurement,setting,value
SK-MES-1,relative viability,Ibrutinib + Vorinostat; first compound 0.005 µM,1.16
same,relative viability,Ibrutinib + Vorinostat; first compound 0.01581 µM,1.05
same,relative viability,Ibrutinib + Vorinostat; first compound 0.05 µM,1.07
same,relative viability,Ibrutinib + Vorinostat; first compound 0.1581 µM,1.26
same,relative viability,Ibrutinib + Vorinostat; first compound 0.5 µM,0.747
same,relative viability,BMX-IN-1 + OSI-027; first compound 0.02 µM,0.783
same,relative viability,BMX-IN-1 + OSI-027; first compound 0.2 µM,0.645
same,relative viability,BMX-IN-1 + OSI-027; first compound 0.6325 µM,0.757
same,relative viability,BMX-IN-1 + OSI-027; first compound 2 µM,0.239
same,relative viability,BMX-IN-1 + Olaparib; first compound 0.02 µM,0.754
same,relative viability,BMX-IN-1 + Olaparib; first compound 0.2 µM,0.811
same,relative viability,BMX-IN-1 + Olaparib; first compound 0.6325 µM,0.961
same,relative viability,BMX-IN-1 + Olaparib; first compound 2 µM,0.625
same,relative viability,PAC-1 + Tozasertib; first compound 0.02 µM,0.9
same,relative viability,PAC-1 + Tozasertib; first compound 0.06325 µM,0.916
same,relative viability,PAC-1 + Tozasertib; first compound 0.2 µM,0.892
same,relative viability,PAC-1 + Tozasertib; first compound 2 µM,0.916

# Reference: the supplement of paper PMC10307832
